Measurements: paper PMC9830638, “High-Contrast Detection of Somatostatin Receptor Subtype-2 for Fluorescence-Guided Surgery” (Molecular Pharmaceutics, 2022)

Tested on: orthotopically implanted BON–SSTR2 tumors
Experiment: Simulated clinical workflow, PET/CT imaging in orthotopic BON–SSTR2 tumor model
Assay type: in vivo, mice
Conditions: orthotopic BON–SSTR2, 7.4 MBq (0.5 nmol), 1 h after injection, n = 5
Procedure: Mice bearing orthotopically implanted BON–SSTR2 tumors (n = 5) were injected with 7.4 MBq (200 μCi; 0.5 nmol) of ^68Ga-DOTA-TOC and underwent PET/computed tomography (CT) imaging (Albira small animal PET/CT scanner, Bruker) 1 h after injection. […] After euthanasia, tumors were harvested under white light, and the wound bed was re-imaged with NIRF. After a more thorough visual inspection of the wound bed under white light, suspicious lesions were identified and harvested with the intact organ for ex vivo imaging along with other tissues of interest. Tumors, suspicious lesions, and relevant non-tumor tissues were processed for immunohistopathological and mesoscopic imaging.
For CFT two-dimensional (2D) and three-dimensional (3D) reconstruction, 2D images were obtained from individual slices, and an image stack was generated to produce 3D data sets. For PET/CT imaging, region-of-interest analysis was done with Integrated PMOD software (PMOD technologies) to standardize uptake values and determine TBRs.

1,4,7,10-tetraazacyclododecane-1,4,7,10-tetraacetic acid-Tyr^3-octreotide [68Ga-DOTA-TOC]
mice with abnormal uptake in the abdomen (PET/CT): 4 out of 5
